From PubChem BioAssay (NCI)
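Five compound concentrations were applied to cells in 96-well plates for 48 hours; endpoints were derived by simple linear interpolation of the resulting dose-response curve. GI50: concentration for 50% inhibition of growth. TGI: concentration producing complete growth inhibition.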

Assays:
Test in all cases: NCI-60 cell line screen, 48 h
786-0 renal = test system: 786-0 renal
A498 renal = test system: A498 renal
A549 NSCLC = test system: A549 NSCLC
ACHN renal = test system: ACHN renal
BT-549 breast = test system: BT-549 breast
CAKI-1 renal = test system: CAKI-1 renal
CCRF-CEM leukemia = test system: CCRF-CEM leukemia
COLO 205 colon = test system: COLO 205 colon
DU-145 prostate = test system: DU-145 prostate
EKVX NSCLC = test system: EKVX NSCLC
HCC-2998 colon = test system: HCC-2998 colon
HCT-116 colon = test system: HCT-116 colon
HCT-15 colon = test system: HCT-15 colon
HL-60(TB) leukemia = test system: HL-60(TB) leukemia
HOP-62 NSCLC = test system: HOP-62 NSCLC
HOP-92 NSCLC = test system: HOP-92 NSCLC
HS 578T breast = test system: HS 578T breast
HT29 colon = test system: HT29 colon
IGROV1 ovarian = test system: IGROV1 ovarian
K-562 leukemia = test system: K-562 leukemia
KM12 colon = test system: KM12 colon
LOX IMVI melanoma = test system: LOX IMVI melanoma
M14 melanoma = test system: M14 melanoma
MALME-3M melanoma = test system: MALME-3M melanoma
MCF7 breast = test system: MCF7 breast
MDA-MB-231 breast = test system: MDA-MB-231 breast
MDA-MB-435 = test system: MDA-MB-435
MOLT-4 leukemia = test system: MOLT-4 leukemia
NCI-H226 lung = test system: NCI-H226 lung
NCI-H23 lung = test system: NCI-H23 lung
NCI-H460 lung = test system: NCI-H460 lung
NCI-H522 lung = test system: NCI-H522 lung
NCI/ADR-RES ovarian = test system: NCI/ADR-RES ovarian
OVCAR-3 ovarian = test system: OVCAR-3 ovarian
OVCAR-4 ovarian = test system: OVCAR-4 ovarian
OVCAR-5 ovarian = test system: OVCAR-5 ovarian
OVCAR-8 ovarian = test system: OVCAR-8 ovarian
PC-3 prostate = test system: PC-3 prostate
RPMI-8226 leukemia = test system: RPMI-8226 leukemia
RXF 393 renal = test system: RXF 393 renal
SF-268 CNS = test system: SF-268 CNS
SF-295 CNS = test system: SF-295 CNS
SF-539 CNS = test system: SF-539 CNS
SK-MEL-2 melanoma = test system: SK-MEL-2 melanoma
SK-MEL-28 melanoma = test system: SK-MEL-28 melanoma
SK-MEL-5 melanoma = test system: SK-MEL-5 melanoma
SK-OV-3 ovarian = test system: SK-OV-3 ovarian
SN12C renal = test system: SN12C renal
SNB-19 CNS = test system: SNB-19 CNS
SNB-75 CNS = test system: SNB-75 CNS
SR leukemia = test system: SR leukemia
SW-620 colon = test system: SW-620 colon
T-47D breast = test system: T-47D breast
TK-10 renal = test system: TK-10 renal
U251 CNS = test system: U251 CNS
UACC-257 melanoma = test system: UACC-257 melanoma
UACC-62 melanoma = test system: UACC-62 melanoma
UO-31 renal = test system: UO-31 renal

SMILES: COC(=O)/C=C/c1cc(OC(C)=O)c2c(c1)[C@@H](C(=O)OC)[C@H](c1ccc(OC(C)=O)c(OC(C)=O)c1)O2
- GI50 (786-0 renal): 0.0958 µM
- TGI (786-0 renal): > 100 µM
- GI50 (A498 renal): 1.01 µM
- TGI (A498 renal): 7.97 µM
- GI50 (A549 NSCLC): 0.248 µM
- TGI (A549 NSCLC): > 78.8 µM
- GI50 (ACHN renal): 0.0705 µM
- TGI (ACHN renal): 52.5 µM
- GI50 (BT-549 breast): 0.219 µM
- TGI (BT-549 breast): 32.9 µM
- GI50 (CAKI-1 renal): 0.314 µM
- TGI (CAKI-1 renal): 44.7 µM
- GI50 (CCRF-CEM leukemia): 0.039 µM
- TGI (CCRF-CEM leukemia): 34.4 µM
- GI50 (COLO 205 colon): 3.57 µM
- TGI (COLO 205 colon): 24.7 µM
- GI50 (DU-145 prostate): 0.0636 µM
- GI50 (EKVX NSCLC): 2.38 µM
- TGI (EKVX NSCLC): > 94.3 µM
- GI50 (HCC-2998 colon): 0.514 µM
- TGI (HCC-2998 colon): 22 µM
- GI50 (HCT-116 colon): 0.0485 µM
- TGI (HCT-116 colon): > 59.9 µM
- GI50 (HCT-15 colon): 0.0421 µM
- TGI (HCT-15 colon): > 100 µM
- GI50 (HL-60(TB) leukemia): 0.0288 µM
- TGI (HL-60(TB) leukemia): 0.0934 µM
- GI50 (HOP-62 NSCLC): 0.0779 µM
- TGI (HOP-62 NSCLC): 63.9 µM
- GI50 (HOP-92 NSCLC): 0.769 µM
- TGI (HOP-92 NSCLC): 22.4 µM
- GI50 (HS 578T breast): 0.0343 µM
- TGI (HS 578T breast): 17.7 µM
- GI50 (HT29 colon): 1.68 µM
- TGI (HT29 colon): > 58.7 µM
- GI50 (IGROV1 ovarian): 0.176 µM
- TGI (IGROV1 ovarian): 38.3 µM
- GI50 (K-562 leukemia): 0.0378 µM
- TGI (K-562 leukemia): > 49.2 µM
- GI50 (KM12 colon): 0.203 µM
- TGI (KM12 colon): 18.7 µM
- GI50 (LOX IMVI melanoma): 0.0615 µM
- TGI (LOX IMVI melanoma): 40.3 µM
- GI50 (M14 melanoma): 0.0338 µM
- TGI (M14 melanoma): 39 µM
- GI50 (MALME-3M melanoma): 0.0512 µM
- TGI (MALME-3M melanoma): 48.7 µM
- GI50 (MCF7 breast): 0.0339 µM
- TGI (MCF7 breast): > 70.7 µM
- GI50 (MDA-MB-231 breast): 0.305 µM
- TGI (MDA-MB-231 breast): 34.4 µM
- GI50 (MDA-MB-435): 0.0166 µM
- TGI (MDA-MB-435): 0.0466 µM
- GI50 (MOLT-4 leukemia): 0.09 µM
- TGI (MOLT-4 leukemia): > 55 µM
- GI50 (NCI-H226 lung): 1.71 µM
- TGI (NCI-H226 lung): 27.4 µM
- GI50 (NCI-H23 lung): 0.0912 µM
- TGI (NCI-H23 lung): 29.7 µM
- GI50 (NCI-H460 lung): 0.299 µM
- TGI (NCI-H460 lung): 15 µM
- GI50 (NCI-H522 lung): 0.0348 µM
- TGI (NCI-H522 lung): 2.13 µM
- GI50 (NCI/ADR-RES ovarian): 0.0423 µM
- TGI (NCI/ADR-RES ovarian): 1.93 µM
- GI50 (OVCAR-3 ovarian): 0.0267 µM
- TGI (OVCAR-3 ovarian): 0.0681 µM
- GI50 (OVCAR-4 ovarian): 0.34 µM
- TGI (OVCAR-4 ovarian): 38.2 µM
- GI50 (OVCAR-5 ovarian): 0.95 µM
- TGI (OVCAR-5 ovarian): > 100 µM
- GI50 (OVCAR-8 ovarian): 0.0795 µM
- TGI (OVCAR-8 ovarian): > 88.3 µM
- GI50 (PC-3 prostate): 0.316 µM
- TGI (PC-3 prostate): 54.7 µM
- GI50 (RPMI-8226 leukemia): 0.049 µM
- GI50 (RXF 393 renal): 0.075 µM
- TGI (RXF 393 renal): 3.03 µM
- GI50 (SF-268 CNS): 0.301 µM
- TGI (SF-268 CNS): 57.5 µM
- GI50 (SF-295 CNS): 0.285 µM
- TGI (SF-295 CNS): 11.4 µM
- GI50 (SF-539 CNS): 0.0344 µM
- TGI (SF-539 CNS): 0.305 µM
- GI50 (SK-MEL-2 melanoma): 0.268 µM
- TGI (SK-MEL-2 melanoma): 70 µM
- GI50 (SK-MEL-28 melanoma): 0.852 µM
- TGI (SK-MEL-28 melanoma): 80.8 µM
- GI50 (SK-MEL-5 melanoma): 0.0493 µM
- TGI (SK-MEL-5 melanoma): 2.34 µM
- GI50 (SK-OV-3 ovarian): 0.417 µM
- TGI (SK-OV-3 ovarian): 41.9 µM
- GI50 (SN12C renal): 0.121 µM
- TGI (SN12C renal): 99.7 µM
- GI50 (SNB-19 CNS): 0.431 µM
- TGI (SNB-19 CNS): > 100 µM
- GI50 (SNB-75 CNS): 0.0191 µM
- TGI (SNB-75 CNS): 1.48 µM
- GI50 (SR leukemia): 0.0281 µM
- TGI (SR leukemia): > 49.6 µM
- GI50 (SW-620 colon): 0.0418 µM
- TGI (SW-620 colon): > 100 µM
- GI50 (T-47D breast): 0.452 µM
- TGI (T-47D breast): 67.3 µM
- GI50 (TK-10 renal): 2.58 µM
- TGI (TK-10 renal): > 91.1 µM
- GI50 (U251 CNS): 0.114 µM
- TGI (U251 CNS): 41 µM
- GI50 (UACC-257 melanoma): 1.45 µM
- TGI (UACC-257 melanoma): 56.2 µM
- GI50 (UACC-62 melanoma): 0.359 µM
- TGI (UACC-62 melanoma): 26 µM
- GI50 (UO-31 renal): 0.131 µM
- TGI (UO-31 renal): 38 µM
